Test system: Rh18 complex spheroid viability, percent test/control
Test: Anticancer human tumor Rh18 cell line growth inhibition [Asc];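 also: spheroids exposed to compound for 7 days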;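 as to viability, T/C: 100% = DMSO vehicle control wells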
Conditions: for IC50: curve of first compound; for viability, T/C: stronger effect = lower value
Procedure: Multicellular complex tumor spheroid response to apoptosis pathway targeting inhibitors Alrizomadlin, Pelcitoclax, and Dasminapant in combination with a variety of drugs and investigational agents in selected tumor cell lines
The MDM2 inhibitor alrizomadlin, the Bcl-2/Bcl-xL inhibitor pelcitoclax, and the IAPs inhibitor dasminapant were evaluated both individually and in combination with standard of care and investigational anticancer small molecules within a complex spheroid model of solid tumors. . Complex spheroids include a stromal component modeled by human endothelial cells (HUVEC) and fibroblasts modeled by human mesenchymal stem cells (MSCs). The concentration ranges selected for each drug and investigational agent were based upon clinically achievable concentrations if the clinical Cmax of the agent was known.
Compounds. The drugs and investigational agents: alrizomadlin (APG-115; NSC831270), pelcitoclax (APG-1252; NSC835773), dasminapant (APG-1387;NSC834197), TAK-243 (NSC785004), copanlisib (NSC809693), olaparib (NSC753686), talazoparib (NSC767125), cobimetinib (NSC 768068), eltanexor (KPT-8602, NSC 794443), abemaciclib (NSC 768073), sotorasib (NSC818433), adagrasib (NSC 831453), MRTX-1133 (NSC 836407), Iadademestat (ORY1001, NSC 806812), and RMC-4630 (NSC839698), were obtained from the NCI Developmental Therapeutics Program Chemical Repository. The FDA-approved anticancer drug set is available from the Developmental Therapeutics Program at https://dtp.cancer.gov/organization/dscb/obtaining/available plates.htm. […] The stock solutions were prepared in dimethyl sulfoxide (DMSO, Sigma-Aldrich, St. Louis, MO, cat. D2650) at 800-fold the tested concentration and stored at -70 degrees C prior to their use. All drugs and investigational agents were tested over a range starting from a high concentration at or near the clinical Cmax and decreasing in half-log increments. If the clinical Cmax for an agent had not been determined, the highest concentration tested was 10 microM.
The patient-derived cancer (PDC) cell lines include five colon adenocarcinomas: 186277-243-T-J2-PDC, 616215-338-R-J1-PDC, 439559-082-T-J2-PDC, 463943-066-T-J2-PDC, and 519858-162-T-J1-PDC; three pancreatic carcinomas: 323965-272-R-J2-PDC, 521955-158-R6-J3-PDC, and 521955-158-R2-J5-PDC; two uterine sarcomas: 327498-152-R-J2-PDC and 993429-296-R-J1-PDC; two rhabdomyosarcomas: 755483-174-R-J1-PDC and 772245-204-R-J1-PDC; two soft tissue sarcomas: 126254-015-R-J1-PDC and 494315-158-R-J1-PDC; two malignant fibrous histiocytomas: 317291-083-R-J1-PDC and 596521-263-R-J1-PDC; two breast carcinomas: 171881-019-R-J1-PDC and 885512-296-R-J2-PDC; and one ovarian carcinoma: 6556581-035-R-J-PDC were obtained from the NCI PDMR, (https://pdmr.cancer.gov). The established cell lines HSSY-2 synovial sarcoma (RRID:CVCL 8719), SYO-1 synovial sarcoma (RRID:CVCL_7146), MPNST malignant peripheral neural sheath tumor were obtained from the Sloan Kettering Institute. The following established cell lines were purchased from the American Type Culture Collection (ATCC, Manassas, VA), Sor the received from the NCI repository:, PANC-1 pancreatic carcinoma (CRL-1469, RRID:CVCL_0480), OVCAR-5 ovarian carcinoma (RRID:CVCL_1628), OVCAR-8 ovarian carcinoma (RRID:CVCL_1629), , MCF-7 breast carcinoma (CRL-12584, RRID:CVCL_0031), MDA-MB-231 breast carcinoma (CRL-12532, RRID:CVCL_0062), NCI-H1876 small cell lung carcinoma (CRL-5902, RRID:CVCL_1503), NCI-H510A small cell lung carcinoma (HTB-184, RRID:CVCL_1565), NCI-H1417 (CRL-5869, RRID:CVCL_1469), and NCI-H196 small cell lung carcinoma (CRL-5823, RRID:CVCL_1509). Dr. Peter Houghton (Greehey Children's Cancer Research Institute, University of Texas Health Science Center, San Antonio, TX) provided Rh-18 rhabdomyosarcoma (RRID:CVCL_1659). Pooled donor human umbilical vein endothelial cells (HUVEC, Lonza, cat. CC-2519) and human mesenchymal stem cells (hMSC, Lonza, cat. PT-2501) were purchased from Lonza (Walkersville, MD).
Cell Culture. […]

Question: Which results are given for `CCN1C(C(=O)NC23CCC(C(=O)O)(CC2)CC3)C(c2cccc(Cl)c2F)C2(C(=O)Nc3cc(Cl)ccc32)C12CCCCC2` (stereo not given) + CNC(C)C(=O)NC1CN(S(=O)(=O)c2cccc(S(=O)(=O)N3CCC4CCC(C(=O)NC(c5ccccc5)c5ccccc5)N4C(=O)C(NC(=O)C(C)NC)C3)c2)CCC2CCC(C(=O)NC(c3ccccc3)c3ccccc3)N2C1=O?
Answer: IC50 (second compound 0.01 µM): < 9.49 nM; IC50 (second compound 0.0316 µM): < 9.49 nM; IC50 (second compound 0.1 µM): < 9.49 nM; IC50 (second compound 0.316 µM): < 9.49 nM; IC50 (second compound 1 µM): < 9.49 nM; viability, T/C (second compound 0.01 µM, first compound 0.00949 µM): 33%; viability, T/C (second compound 0.01 µM, first compound 0.03 µM): 26.5%; viability, T/C (second compound 0.01 µM, first compound 0.0949 µM): 19.7%; viability, T/C (second compound 0.01 µM, first compound 0.3 µM): 11.7%; viability, T/C (second compound 0.01 µM, first compound 0.949 µM): 10.8%; viability, T/C (second compound 0.01 µM, first compound 3 µM): 7.5%; viability, T/C (second compound 0.0316 µM, first compound 0.00949 µM): 28.5%; viability, T/C (second compound 0.0316 µM, first compound 0.03 µM): 21.7%; viability, T/C (second compound 0.0316 µM, first compound 0.0949 µM): 16.3%; viability, T/C (second compound 0.0316 µM, first compound 0.3 µM): 11.6%; viability, T/C (second compound 0.0316 µM, first compound 0.949 µM): 10.3%; viability, T/C (second compound 0.0316 µM, first compound 3 µM): 7.98%; viability, T/C (second compound 0.1 µM, first compound 0.00949 µM): 20.6%; viability, T/C (second compound 0.1 µM, first compound 0.03 µM): 18.6%; viability, T/C (second compound 0.1 µM, first compound 0.0949 µM): 14.6%; viability, T/C (second compound 0.1 µM, first compound 0.3 µM): 13.5%; viability, T/C (second compound 0.1 µM, first compound 0.949 µM): 10.5%; viability, T/C (second compound 0.1 µM, first compound 3 µM): 8.21%; viability, T/C (second compound 0.316 µM, first compound 0.00949 µM): 21%; viability, T/C (second compound 0.316 µM, first compound 0.03 µM): 18.1%; viability, T/C (second compound 0.316 µM, first compound 0.0949 µM): 17.7%; viability, T/C (second compound 0.316 µM, first compound 0.3 µM): 14.1%; viability, T/C (second compound 0.316 µM, first compound 0.949 µM): 9.49%; viability, T/C (second compound 0.316 µM, first compound 3 µM): 10.4%; viability, T/C (second compound 1 µM, first compound 0.00949 µM): 19.9%; viability, T/C (second compound 1 µM, first compound 0.03 µM): 17.2%; viability, T/C (second compound 1 µM, first compound 0.0949 µM): 15.9%; viability, T/C (second compound 1 µM, first compound 0.3 µM): 13.7%; viability, T/C (second compound 1 µM, first compound 0.949 µM): 11.8%; viability, T/C (second compound 1 µM, first compound 3 µM): 9.28%
